The record followed here is patent US9006440B2, “Furopyridine derivatives” (Merck Patent GmbH, priority 2010, dated 2015).

Holding throughout (format): biochemical
One experiment concerns the target T1, Syk (Homo sapiens, UniProt P43405).
T1 construct: purchased BPS Bioscience, CA, USA
As to the kind of experiment: Syk enzyme assay (SYK flash plate assay / Caliper mobility shift). On the procedure:
The kinase assay is performed either as 384-well Flashplate assay (for e.g. Topcount measurement) or as 384-well Image-Flashplate assay (for LEADseeker measurement).
2.5 nM SYK, 400 nM Biotin-Aha-Aha-KEDPDYEWPSAKK
and 10 μM ATP (spiked with 0.3 μCi 33P-ATP/well) are incubated in a total volume of 50 μl (60 mM Hepes, 10 mM MgCl2, 1.2 mM Dithiothreitol, 0.02% Brij35, 0.1% BSA, pH 7.5) with or without test compound for 1 hours at 30° C. The reaction is stopped with 25 μl 200 mM EDTA. After 30 Min at 30° C. the liquid is removed and each well washed thrice with 100 μl 0.9% sodium chloride solution. Non-specific reaction is determined in presence of 0.1 μM Staurosporine. Radioactivity is measured with Topcount (when using Flashplates) or with LEADseeker (when using Image-Flashplates) respectively. Results (e.g. IC50-values) are calculated with program tools provided by the IT-department (e.g. Symyx Assay Explorer, Genedata Screener). Enzymatic Assays Using the Caliper LifeSciences Technology
(§1) The assays described here are performed on the Caliper Life Sciences LC3000 system This technology provides data on enzyme activity via measurement of the relative amounts of phosphorylated or unphosphorylated fluorescently labelled substrate peptide at the end of an enzymatic reaction. These different states of peptide are resolved by applying a potential difference across the sample. The presence of the charged phosphate group on the product (as opposed to the substrate) causes a different peptide mobility between the two peptides. This is visualized by excitation of the fluorescent label on the substrate and product peptides and represented as peaks within the analysis software.
(§2) In order to measure inhibitor activity of kinase inhibitors on this technology, a TTP Mosquito liquid handling instrument is used to place 0.25 ul of the appropriate concentration of inhibitor in 100% DMSO (for a dose response curve calculation) into each well of a 384-well plate. To this reaction components are added to a final volume of 25 ul. The table below indicates the sequences and concentrations for the assays described in this report. Standard components are 1 mM DTT (Sigma, D0632), 1 mM MgCl2 (Sigma, M1028), 100 mM HEPES pH 7.5 (Calbiochem, 391338), 0.015% Brij-35 (Sigma, B4184).
(§3) The reaction is incubated for 90 min at 25 C, and then stopped by the addition of 70 ul of Stop buffer (100 mM HEPES pH 7.5, 0.015% Brij-35, 10 mM EDTA (Sigma, E7889)).
(§4) The plate is read on a Caliper LC 3000 in an Off-Chip mobility shift assay format, on a 12-sipper chip. Unphosphorylated substrate and phosphorylated product peptide resolve as separate peaks allowing direct measurement of percentage of conversion of substrate to product. The percent conversion can be plotted against concentration of inhibitor to produce a sigmoidal dose response curve, from which an IC50 can be calculated using GeneData Condoseo or a similar product.

In another experiment the target is T2, SRC (Homo sapiens, UniProt P12931).
T2 construct: purchased Carna Bioscience, Kobe, Japan
As to the kind of experiment: Src enzymatic assay (Caliper LifeSciences technology). On the procedure: as §1, §2, §3, §4

The target in the next experiment is T3, KDR (Homo sapiens, UniProt P35968).
T3 construct: purchased BPS Bioscience, CA, USA
As to the kind of experiment: KDR enzymatic assay (Caliper LifeSciences technology). On the procedure: as §1, §2, §3, §4

T3 sequence (P35968 20-1356): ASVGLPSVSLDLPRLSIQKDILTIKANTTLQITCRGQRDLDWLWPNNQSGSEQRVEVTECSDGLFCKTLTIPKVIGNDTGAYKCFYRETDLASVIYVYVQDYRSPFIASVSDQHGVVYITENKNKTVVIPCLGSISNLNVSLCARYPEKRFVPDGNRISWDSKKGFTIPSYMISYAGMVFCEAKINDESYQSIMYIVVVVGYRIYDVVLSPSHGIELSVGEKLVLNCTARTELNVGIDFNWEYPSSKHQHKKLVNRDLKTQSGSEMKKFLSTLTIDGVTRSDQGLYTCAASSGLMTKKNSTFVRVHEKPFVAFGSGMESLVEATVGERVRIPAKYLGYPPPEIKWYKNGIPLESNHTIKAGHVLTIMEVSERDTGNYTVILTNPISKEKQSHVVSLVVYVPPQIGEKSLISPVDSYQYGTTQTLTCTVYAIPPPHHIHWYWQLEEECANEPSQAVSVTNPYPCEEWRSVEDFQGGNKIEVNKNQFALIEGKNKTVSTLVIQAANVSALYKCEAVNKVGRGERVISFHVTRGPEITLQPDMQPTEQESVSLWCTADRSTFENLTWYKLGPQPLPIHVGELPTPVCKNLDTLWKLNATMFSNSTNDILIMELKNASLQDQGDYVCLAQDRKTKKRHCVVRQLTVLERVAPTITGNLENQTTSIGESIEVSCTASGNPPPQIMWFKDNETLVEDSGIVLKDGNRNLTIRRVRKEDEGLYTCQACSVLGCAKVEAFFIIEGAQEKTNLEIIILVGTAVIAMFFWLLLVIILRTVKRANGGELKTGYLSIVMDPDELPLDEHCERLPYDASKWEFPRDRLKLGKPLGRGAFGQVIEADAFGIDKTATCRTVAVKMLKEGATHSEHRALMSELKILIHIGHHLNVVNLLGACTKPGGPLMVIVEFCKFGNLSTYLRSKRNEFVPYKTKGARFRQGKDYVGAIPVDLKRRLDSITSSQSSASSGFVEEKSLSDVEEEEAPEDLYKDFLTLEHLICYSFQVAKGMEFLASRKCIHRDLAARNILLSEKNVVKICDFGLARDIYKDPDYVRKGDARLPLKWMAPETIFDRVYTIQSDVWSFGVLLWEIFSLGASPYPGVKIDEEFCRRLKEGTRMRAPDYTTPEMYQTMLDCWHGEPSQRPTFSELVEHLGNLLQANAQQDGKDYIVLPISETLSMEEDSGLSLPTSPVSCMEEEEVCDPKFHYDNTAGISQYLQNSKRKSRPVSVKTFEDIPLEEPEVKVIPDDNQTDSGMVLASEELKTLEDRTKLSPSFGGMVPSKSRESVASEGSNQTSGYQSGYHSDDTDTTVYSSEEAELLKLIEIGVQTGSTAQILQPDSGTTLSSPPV
T2 sequence (P12931 whole entry): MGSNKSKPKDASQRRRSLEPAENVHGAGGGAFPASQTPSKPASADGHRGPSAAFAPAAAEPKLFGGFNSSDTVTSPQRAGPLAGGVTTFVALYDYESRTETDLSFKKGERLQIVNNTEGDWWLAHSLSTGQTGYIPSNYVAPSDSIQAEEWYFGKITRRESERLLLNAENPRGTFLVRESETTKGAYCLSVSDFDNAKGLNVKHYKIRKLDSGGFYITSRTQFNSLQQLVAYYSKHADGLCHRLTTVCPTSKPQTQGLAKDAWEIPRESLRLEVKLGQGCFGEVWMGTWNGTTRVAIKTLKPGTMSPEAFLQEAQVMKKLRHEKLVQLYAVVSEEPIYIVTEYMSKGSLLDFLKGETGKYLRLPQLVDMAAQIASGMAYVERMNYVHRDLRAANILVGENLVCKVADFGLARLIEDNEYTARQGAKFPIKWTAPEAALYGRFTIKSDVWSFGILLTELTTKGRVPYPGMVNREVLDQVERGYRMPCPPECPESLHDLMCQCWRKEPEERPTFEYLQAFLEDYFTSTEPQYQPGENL

For the compound `COc1cc(-c2cc3nccc(-c4c[nH]nc4C)c3o2)cc(OC)c1OC` [Compound C127], the IC50 (usually the concentration that inhibits the measured activity by half) was < 0.3 µM on Syk, 0.3 to 3 µM at SRC and 0.3 to 3 µM on KDR.

As for `COc1cc(-c2cc3nccc(-c4cccc(C(=O)NC5CCNC5)c4)c3o2)cc(OC)c1OC` (stereo not shown) [Compound A66, N-pyrrolidin-3-yl-3-[2-(3,4,5-trimethoxyphenyl)furo[3,2-b]pyridin-7-yl]benzamide], the IC50 on Syk was < 0.3 µM; at SRC it was 0.3 to 3 µM.

As for `COc1ccc(-c2cc3nccc(-c4ccc(OC)c(OC)c4OC)c3o2)c(OC)c1OC` [Compound B40, 2,7-Bis-(2,3,4-trimethoxy-phenyl)-furo[3,2-b]pyridine], the IC50 was 0.3 to 3 µM at Syk, 3 to 50 µM on SRC and 0.3 to 3 µM against KDR.

As to `COc1cc(-c2cc3nccc(-c4cccc(C(=O)N5CCC(N)C5)c4)c3o2)cc(OC)c1OC` (stereo not shown) [Compound A67, (3-aminopyrrolidin-1-yl)-[3-[2-(3,4,5-trimethoxyphenyl)furo[3,2-b]pyridin-7-yl]phenyl]methanone], the IC50 on Syk and against SRC was 0.3 to 3 µM in each case.

As to `COc1cc(-c2cc3nccc(-c4cccc(C(=O)NCC5CCCN5)c4)c3o2)cc(OC)c1OC` (stereo not shown) [Compound C11], the IC50 on Syk is < 0.3 µM; against SRC it was 3 to 50 µM.

Consider `COc1cc(C(=O)N[C@@H]2CCCC[C@@H]2N)cc(-c2ccnc3cc(-c4cc(OC)c(OC)c(OC)c4)oc23)c1` [Compound C170], for which the 50% inhibitory concentration (IC50) on Syk and at SRC was < 0.3 µM in each case.

On to `COc1cc(-c2cc3nccc(-c4cc(O)cc(C(=O)NCCN)c4)c3o2)cc(OC)c1OC` [Compound C149], for which the results for the IC50 on Syk and against SRC were < 0.3 µM and 0.3 to 3 µM, respectively.

Turning to `Cn1cc(-c2ccnc3cc(-c4ccc5c(c4)OCCO5)oc23)cn1` [Compound C17], the IC50 at Syk and against KDR was 0.3 to 3 µM in each case.

`Cn1cc(-c2ccnc3cc(-c4ccc(N5CCOCC5)cc4)oc23)cn1` [Compound C49]: the IC50 at Syk and at KDR was 0.3 to 3 µM each time.

As to `COc1cc(-c2cc3nccc(C4=CCOCC4)c3o2)cc(OC)c1OC` [Compound C68], the IC50 at Syk is 0.3 to 3 µM; on KDR, < 0.3 µM.

As for `Cn1cc(-c2ccnc3cc(-c4ccc(OCC(O)CN5CCOCC5)cc4)oc23)cn1` (stereo not shown) [Compound C37], the IC50 on Syk and on KDR was 0.3 to 3 µM each time.

For the compound `COc1cc(-c2cc3nccc(-c4cccc(O)c4)c3o2)cc(OC)c1OC` [Compound A36, 3-[2-(3,4,5-Trimethoxy-phenyl)-furo[3,2-b]pyridin-7-yl]-phenol], the IC50 at Syk is < 0.3 µM; against KDR, 3 to 50 µM.

As for `COc1cc(-c2cc3nccc(-c4cnn(C)c4)c3o2)ccc1OCCNC(=O)OC(C)(C)C` [Compound C62], the IC50 at Syk and against KDR was 0.3 to 3 µM throughout.

On to `CC(C)(O)c1ccc(-c2cc3nccc(-c4ccc(C(C)(C)O)cc4)c3o2)cc1` [Compound B45, 2-(4-{2-[4-(1-Hydroxy-1-methyl-ethyl)-phenyl]-furo[3,2-b]pyridin-7-yl}-phenyl)-propan-2-ol], for which the IC50 on Syk and at KDR was 0.3 to 3 µM in each case.

As for `COc1ccc(-c2cc3nccc(-c4cnn(C)c4)c3o2)cc1` [Compound C33], the IC50 on Syk and against KDR was 0.3 to 3 µM each time.

Regarding `COc1ccc(OC)c(-c2cc3nccc(-c4cnn(C)c4)c3o2)c1` [Compound C140], the results for the IC50 on Syk and against SRC were < 0.3 µM and 0.3 to 3 µM, respectively.

Regarding `Cn1cc(-c2ccnc3cc(-c4ccc5cc[nH]c5c4)oc23)cn1` [Compound C19], the figures for the IC50 on Syk and against KDR were < 0.3 µM and 3 to 50 µM, respectively.

For `COc1cc(-c2cc3nccc(-c4cccc(NC(C)=O)c4)c3o2)cc(OC)c1OC` [Compound B72, N-(3-(2-(3,4,5-Trimethoxyphenyl)furo[3,2-b]pyridin-7-yl)phenyl)acetamide], the IC50 was 0.3 to 3 µM on Syk and 3 to 50 µM on SRC.

In the case of `COc1cc(-c2cc3nccc(-c4c(F)cccc4OC)c3o2)cc(OC)c1OC` [Compound C119], the IC50 on Syk is < 0.3 µM; against SRC, 3 to 50 µM.
